Data set [1] concerns Granta-519 mouse xenograft. Briefly: Tumor growth inhibition in Granta-519 mouse xenograft model. In kind it is in vivo. As to the method: Granta-519 cells was maintained in DMEM medium supplemented with 10% fetal bovine serum and 2 mM L-Glutamine at 37° C. in an atmosphere of 5% CO2 in air. Cells in exponential growth phase were harvested and 1×10^7 cells in 0.1 mL of PBS with Matrigel (1:1) were injected subcutaneously at the right lower flank region of each mouse for tumor development. The treatments were started when the mean tumor size reaches approximately 300-400 mm^3. […] Example 1 or vehicle (0.5% Na CMC+0.5% Tween80, suspension) were administered orally (BID or QD for Example 1, QD for vehicle) at a dose of 25 mg/kg BID and 50 mg/kg QD for 16 and 20 days, respectively. Body weights and tumor size were measured every 3 to 4 days after randomization. Animals were euthanized 12 hours after last dosing, and blood and tumor samples were collected for analysis.

Another data set deals with U-87 MG cells. Briefly: Cell proliferation assay in U-87 MG cells. In kind it is cell-based. The conditions noted are these: Homo sapiens, 240 h, day 10, read-out: Prolif_U87 IC50. Here is the method:
One day before experiment, Granta-519 cells were passaged to a density of 0.5×10^6 cells/ml. U-87 MG cells were trypsinized and 2,000 cells were seeded into 96-well plates and allow to grow overnight. On the day of experiment (day 0), Granta-519 Cells were spun down at 1,500 rpm for 4 min, resuspended in fresh medium to 0.5×10^6 cells/ml and 190 ul of cells were added to 96 well plates. For U-87 MG cells, old medium was removed and replaced with 190 uL fresh medium. Compound working stocks were first diluted at 1:50 with fresh medium in 96 well plate and 10 μL of diluted drugs were added to 96 well plates containing cells and incubated for 3 days. DMSO was used a vehicle control.
One day 3, 50 uL of Granta-519 cells were transferred to a new 96-well plate and 140 uL fresh medium was added. For U-87 MG cells, old medium was removed and replaced with 190 uL fresh medium. Compound working stocks were freshly diluted at 1:50 with medium and 10 μL of diluted drugs were added to cells and grow for 3 additional days. The same process was repeated on day 6. Cells were allowed to grow for additional 4 days.
On day 10, 100 uL Granta-519 cells were transferred to a new 96 well plate and 10 μL of Cell Counting Kit-8 (CCK-8, Jojindo, CK04-13) solution was added. For U-87 MG cells, old medium was removed and replaced with 100 uL fresh medium and 10 uL CCK-8 solution was added. Plates were incubated in CO2 incubator for 2 hours (Granta-519 cells) or 30 min (U-87 MG cells) and OD450 values were measured with a microplate reader (iMark microplate reader, Bio-Rad). Percentage of viable cells, relative to DMSO vehicle control, were calculated and plotted in Graphpad Prism ([Inhibitor]vs. normalized response−Variable slope) to determine proliferation IC50 values on day 10.
These cell proliferation procedures produced the data in Table 7.

The subject of data set [2] is U87MG-luc3 human glioblastoma cells. Briefly: Tumor growth inhibition in U87 MG mouse orthotopic model. In kind it is in vivo. As to conditions: for tumor growth inhibition: day 29. As to the method:
U87MG-luc3 human glioblastoma cells were grown to mid-log phase in Eagle's Minimum Essential Medium containing 10% fetal bovine serum, 2 mM glutamine, 1× non-essential amino acids, 0.075% sodium bicarbonate, 1 mM sodium pyruvate, 100 units/mL sodium penicillin G, g/mL gentamicin, and 100 μg/mL streptomycin sulfate. The tumor cells were cultured in tissue culture flasks in a humidified incubator at 37° C., in an atmosphere of 5% CO2 and 95% air. Cells were cultured in 2 μg/mL puromycin until the second to last passage before implant, grown to mid-log phase and harvested. Post-implant verification of luciferase-expressing cells was performed by maintaining cells in culture for three passages after implant to ensure stable doubling time. Limiting dilution was used to verify and quantitate light production in the presence of luciferin. Cells were harvested at mid-log phase and resuspended at a concentration of 1×10^8 cells/mL in PBS. Each mouse (Female athymic nude mice (Crl:NU(NCr)-Foxn1nu, Charles River)) received an intracranial injection of 1×10^6 U87MG-luc3 cells (0.01 mL cell suspension) and tumor growth was monitored through whole body bioluminescent imaging. Four days post cell implant, designated as Day 1 of the study, the animals were sorted into five groups based on flux values before treatment starts. Ex. 11 or vehicle (0.5% Na CMC+0.5% Tween80) was administered orally BID. Ex. 11 was dosed at 10, 20 mg/kg BID and 50 mg/kg BID, 7-day on/7-day off for 22 days. Animals were continued to be observed to obtain overall survival data.
In Vivo bioluminescence images (dorsal) were captured to monitor tumor progression. Luciferase activity was measured in live animals using IVIS SpectrumCT (Perkin Elmer, Mass.) equipped with a CCD camera (cooled at −90° C.), mounted on a light-tight specimen chamber. Regions of interest were drawn around each mouse image, and flux was quantified and reported as 10^6 photons per second (p/s). For overall survival, animals were monitored individually to an endpoint of moribundity due to progression of systemic lymphoma. Full hind limb paralysis, severe ocular proptosis or moribundity all called for euthanasia.

Where [3] appears, read: 50 mg/kg BID oral, 7-day on/7-day off.

The structures appear in SMILES notation. pIC50: −log10 of the molar value.

On to `C[C@@](O)(c1ccc2c(c1)CC2)[C@H]1O[C@@H](n2ccc3c(N)ncnc32)[C@H](O)[C@@H]1O` [Example 1, (2R,3R,4S,5S)-2-(4-amino-7H-pyrrolo[2,3-d]pyrimidin-7-yl)-5-((R)-1-(bicyclo[4.2.0]octa-1(6),2,4-trien-3-yl)-1-hydroxyethyl)tetrahydrofuran-3,4-diol], for which, in data set [1] (25 mg/kg BID oral, 16 days), the body weight loss is 6.75% and the tumor growth inhibition is listed as 76.7%. Besides, in data set [1] (50 mg/kg QD oral, 20 days), the body weight gain is on record as 10.1% and the tumor growth inhibition is 5.8%.
The pIC50 is the IC50 on a negative log10 scale, so that one unit is a factor of ten. With `Nc1ncnc2c1c(F)cn2[C@@H]1O[C@H]([C@H](O)c2ccc3c(c2)CC3)[C@@H](O)[C@H]1O` [Example 6, (2R,3R,4S,5R)-2-(4-amino-5-fluoro-7H-pyrrolo[2,3-d]pyrimidin-7-yl)-5-((R)-bicyclo[4.2.0]octa-1(6),2,4-trien-3-yl(hydroxy)methyl)tetrahydrofuran-3,4-diol], the pIC50 with U-87 MG cells is 6.94.
In the case of `Cc1ncnc2c1ccn2[C@@H]1O[C@H]([C@H](O)c2ccc3c(c2)CC3)[C@@H](O)[C@H]1O` [Example 11, (2R,3S,4R,5R)-2-((R)-bicyclo[4.2.0]octa-1(6),2,4-trien-3-yl(hydroxy)methyl)-5-(4-methyl-7H-pyrrolo[2,3-d]pyrimidin-7-yl)tetrahydrofuran-3,4-diol], the median survival came to 41 days in data set [2] (10 mg/kg BID oral), 37.5 days in data set [2] (20 mg/kg BID oral) and 39 days in data set [2] (setting [3]). Besides, the tumor growth inhibition was found to be 10% in data set [2] (10 mg/kg BID oral), 61% in data set [2] (20 mg/kg BID oral) and 85% in data set [2] (setting [3]). Also, in the data set with U-87 MG cells, the pIC50 was 6.69.

The values above are taken from US11524962B2, “Substituted pyrrolo[2,3-d]pyrimidines as inhibitors of protein arginine methyl transferase 5 (PRMT5)” (PRELUDE THERAPEUTICS, INCORPORATED, priority 2017, dated 2022).
